The text below walks through data of patent US8884072B2, “Mitigation of fouling in hydroformylation processes by water addition” (Dow Technology Investments LLC, priority 2010, dated 2014).

Common to all, as to format: physicochemical
A short description of series [1]: Observation of HPPA-Na2 in anhydrous valeraldehyde at room temperature (Comparative Example 1). The settings on record: 15 mg in anhydrous valeraldehyde (3.52 g; 0.0961 wt % water), two hours. As to the method:
One small portion (15 mg) of a disodium salt of hydroxypentylphosphonic acid (HPPA-Na2) was charged to a 20 ml glass vial under nitrogen. Anhydrous valeraldehyde (3.52 g; 0.0961 wt % water) was added and the resulting mixture was stirred at room temperature.

A short description of series [2]: Observation of HPPA-Na2 in valeraldehyde/valeraldehyde trimers (2:1) and 1-butene, stirred at room temperature for two hours (Examples 1-3). As for the experimental part: (§1) Valeraldehyde was freshly distilled under reduced pressure prior to use. Valeraldehyde trimers were obtained by vacuum distillation of a commercial catalyst recycle sample. The distillate was determined to be a mixture of 75% valeraldehyde trimers and 25% valeraldehyde dimers by gas chromatography and mass spectrometry (GC/MS). A portion of both valeraldehyde and valeraldehyde trimers was saturated with water, and then blended with freshly distilled material to provide solutions of varying water levels. Unless otherwise noted, all water concentrations were determined by Karl-Fischer titration.
One small portion (70 mg) of a disodium salt of hydroxypentylphosphonic acid (HPPA-Na2) was charged to each of three, 3 oz glass pressure vessels. Valeraldehyde, valeraldehyde trimers (2:1 weight ratio) and 1-butene were then added via syringe and stirred at room temperature for two hours.

Series [3] can be described thus: Solubility properties of HPPA-Na2 under simulated hydroformylation reaction conditions with incremental water addition (Example 7). As for the experimental part:
A small portion (67 mg) of the disodium salt of hydroxypentylphosphonic acid (HPPA-Na2) was charged to a 3 oz glass pressure vessel. A 2:1 mixture of valeraldehyde and valeraldehyde trimers (4.07 g) was added, and stirring was initiated at room temperature. Butene-1 (1.22 g) was added via syringe, and the tube was placed in an oil bath at 70° C. Additional water was slowly added to determine solubility properties under simulated hydroformylation reaction conditions. Total water content is based on the initial water level (determined by K—F titration) plus the incremental water additions made throughout.

Series [4] can be described thus: HPPA-Na2 solubility in valeraldehyde/valeraldehyde trimers/1-butene at 70° C., filtrate quantified by ion chromatography (Examples 4-6). The settings on record: two hours. As for the experimental part: as §1
One small portion (130-160 mg) of the disodium salt of hydroxypentylphosphonic acid (HPPA-Na2) was charged to each of three, 3 oz glass pressure vessels. Valeraldehyde, valeraldehyde trimers and 1-butene were then added via syringe and the resulting mixtures (which contained various levels of water) were stirred vigorously at 70° C. for two hours. Samples were then removed at temperature, quickly filtered, and the filtrate was twice extracted with water to facilitate the quantization of HPPA-Na2 solubility by ion chromatography.
The solutions of Examples 4-6 were intended to model actual hydroformylation solution conditions.

Each structure is given as a SMILES string.

In the case of `CCCCC(O)P(=O)([O-])[O-].[Na+].[Na+]` (centres unmarked) [HPPA-Na2, disodium salt of hydroxypentylphosphonic acid], in series [1], the “Appearance of the solids after stirring” value is reported as “the solids remained free-flowing, suspended particulates”. In addition, the Observations result in series [2] (Example 1, val/val trimer 8.42 g, 1-butene 2.41 g, Water 0.29 %) was “Voluminous, gelatinous”; in series [2] (Example 2, val/val trimer 8.94 g, 1-butene 2.26 g, Water 0.87 %) it was “Mixture of gel and sticky”; in series [2] (Example 3, val/val trimer 8.97 g, 1-butene 2.22 g, Water 1.47 %), “Sticky material on glass”. Further, the Result entry is “No change” in series [3] (22 ° C., water content 0.86 %, additive 1.22 g 1-butene); “Opaque with sticky, gelatinous” in series [3] (22 ° C., water content 0.86 %, additives None); “No change” in series [3] (70 ° C., water content 0.86 %, additives None); “No change” in series [3] (70 ° C., water content 3.19 %, additive 0.1 mL water); “Less turbid” in series [3] (70 ° C., water content 5.54 %, additive 0.1 mL water); “Much less turbid; solids gone” in series [3] (70 ° C., water content 7.72 %, additive 0.1 mL water). The Result entry in series [3] (70 ° C., water content 9.8 %, additive 0.1 mL water) is “Clear solution”. Further, the HPPA-Na2 solubility in series [4] (Ex. 4, Val. 52.0 wt %, Val Trimer 26.0 wt %, 1-butene 21.2 wt %, Water 0.103 wt %) stood at 4.8 ppm; in series [4] (Ex. 5, Val. 52.1 wt %, Val Trimer 26.0 wt %, 1-butene 21.1 wt %, Water 0.380 wt %) it was 15.5 ppm; in series [4] (Ex. 6, Val. 52.7 wt %, Val Trimer 26.4 wt %, 1-butene 20.8 wt %, Water 0.860 wt %), 21.3 ppm. Also, the Description entry in series [4] (Ex. 4, Water 0.103 wt %) is listed as “Hazy watery”; in series [4] (Ex. 5, Water 0.380 wt %), “Very hazy”; in series [4] (Ex. 6, Water 0.860 wt %), “Solid gel”.
